According to patent publication US10131652B2, “Pyrimidinyloxy benzene derivatives as herbicides” (E. I. DU PONT DE NEMOURS AND COMPANY, priority 2014, dated 2018):

Tests used:
Format in all cases: in vivo
[1] = tested on: giant foxtail (Setaria faberii); test: Test B pre-/postemergence plant response
Excerpt: (§1) Seeds of plant species selected from bamyardgrass (Echinochloa crus-galli), kochia (Kochia scoparia), ragweed (common ragweed, Ambrosia elatior), Italian ryegrass (Lolium multiflorum), large (Lg) crabgrass (Digitaria sanguinalis), giant foxtail (Setaria faberii), momingglory (Ipomoea spp.), pigweed (Amaranthus retroflexus), velvetleaf (Abutilon theophrasti), wheat (Triticum aestivum), and corn (Zea mays) were planted into a blend of loam soil and sand and treated preemergence with a directed soil spray using test chemicals formulated in a non-phytotoxic solvent mixture which included a surfactant. At the same time, plants selected from these crop and weed species and also blackgrass (Alopecurus myosuroides), and galium (catchweed bedstraw, Galium aparine) were planted in pots containing the same blend of loam soil and sand and treated with postemergence applications of test chemicals formulated in the same manner. Plants ranged in height from 2 to 10 cm and were in the one- to two-leaf stage for the postemergence treatment. Treated plants and untreated controls were maintained in a greenhouse for approximately 10 days, after which time all treated plants were compared to untreated controls and visually evaluated for injury. Plant response ratings, summarized in Table B, are based on a 0 to 100 scale where 0 is no effect and 100 is complete control. A dash (-) response means no test result.

[2] = tested on: pigweed (Amaranthus retroflexus); test: Test B pre-/postemergence plant response
Excerpt: as §1

[3] = tested on: wheat (Triticum aestivum); test: Test B pre-/postemergence plant response
Excerpt: as §1

[4] = tested on: Italian ryegrass (Lolium multiflorum); test: Test B pre-/postemergence plant response
Excerpt: as §1

corn (Zea mays) = test: Test B pre-/postemergence plant response
Excerpt: as §1

kochia (Kochia scoparia) = test: Test B pre-/postemergence plant response
Excerpt: as §1

[5] = tested on: barnyardgrass (Echinochloa crus-galli); test: Test B pre-/postemergence plant response
Excerpt: as §1

[6] = tested on: ragweed (common ragweed, Ambrosia elatior); test: Test B pre-/postemergence plant response
Excerpt: as §1

[7] = tested on: blackgrass (Alopecurus myosuroides); test: Test B postemergence plant response
Excerpt: (§2) At the same time, plants selected from these crop and weed species and also blackgrass (Alopecurus myosuroides), and galium (catchweed bedstraw, Galium aparine) were planted in pots containing the same blend of loam soil and sand and treated with postemergence applications of test chemicals formulated in the same manner. Plants ranged in height from 2 to 10 cm and were in the one- to two-leaf stage for the postemergence treatment. Treated plants and untreated controls were maintained in a greenhouse for approximately 10 days, after which time all treated plants were compared to untreated controls and visually evaluated for injury. Plant response ratings, summarized in Table B, are based on a 0 to 100 scale where 0 is no effect and 100 is complete control. A dash (-) response means no test result.

[8] = tested on: galium (catchweed bedstraw, Galium aparine); test: Test B postemergence plant response
Excerpt: as §2

[9] = Postemergence, 1000 g ai/ha, 0 to 100 scale (0 no effect, 100 complete control)
[10] = Preemergence, 1000 g ai/ha, 0 to 100 scale (0 no effect, 100 complete control)
[11] = 31 g ai/ha, Postemergence, 0 to 100 scale, 0 no effect, 100 complete control
[12] = 125 g ai/ha, postemergence, 0 to 100 scale, 0 no effect, 100 complete control
[13] = Preemergence, 31 g ai/ha, 0 to 100 scale (0 no effect, 100 complete control)
[14] = Preemergence, 125 g ai/ha, 0 to 100 scale where 0 is no effect and 100 is complete control

## Clc1cnc(Oc2ccccc2-c2ncns2)nc1 [Compound 172]
[1]; [9]
  Plant response rating, Foxtail, Giant: 10
[1]; [10]
  Plant response rating, Foxtail, Giant: 30
[2]; [9]
  Plant response rating, Pigweed: 80
[2]; [10]
  Plant response rating, Pigweed: 90
[3]; [9]
  Plant response rating, Wheat: 0
[4]; [9]
  Plant response rating, Ryegrass, Italian: 0
[4]; [10]
  Plant response rating, Ryegrass, Italian: 0
Corn (Zea mays); [9]
  Plant response rating, Corn: 10
Kochia (Kochia scoparia); [9]
  Plant response rating, Kochia: 30
Kochia (Kochia scoparia); [10]
  Plant response rating, Kochia: 20
[5]; [9]
  Plant response rating, Barnyardgrass: 10
[5]; [10]
  Plant response rating, Barnyardgrass: 0
[6]; [9]
  Plant response rating, Ragweed: 10
[6]; [10]
  Plant response rating, Ragweed: 0
[7]; [9]
  Plant response rating, Blackgrass: 0
[8]; [9]
  Plant response rating, Galium: 10

## O=Cc1cc(-c2c(Br)cccc2Oc2ncc(Cl)cn2)no1 [Compound 195]
[1]; [9]
  Plant response rating, Foxtail, Giant: 10
[1]; [10]
  Plant response rating, Foxtail, Giant: 30
[2]; [9]
  Plant response rating, Pigweed: 50
[2]; [10]
  Plant response rating, Pigweed: 60
[3]; [9]
  Plant response rating, Wheat: 0
[4]; [9]
  Plant response rating, Ryegrass, Italian: 10
[4]; [10]
  Plant response rating, Ryegrass, Italian: 0
Corn (Zea mays); [9]
  Plant response rating, Corn: 10
Kochia (Kochia scoparia); [9]
  Plant response rating, Kochia: 10
Kochia (Kochia scoparia); [10]
  Plant response rating, Kochia: 0
[5]; [9]
  Plant response rating, Barnyardgrass: 10
[5]; [10]
  Plant response rating, Barnyardgrass: 40
[6]; [9]
  Plant response rating, Ragweed: 10
[6]; [10]
  Plant response rating, Ragweed: 10
[7]; [9]
  Plant response rating, Blackgrass: 0
[8]; [9]
  Plant response rating, Galium: 10

## FC(F)=Cc1cc(-c2c(F)cccc2Oc2ncc(Cl)cn2)no1 [Compound 91]
[1]; [11]
  Plant response rating, Foxtail, Giant: 0
[1]; [12]
  Plant response rating, Foxtail, Giant: 0
[1]; [13]
  Foxtail, Giant plant response rating: 0
[1]; [14]
  Plant response rating, Foxtail, Giant: 0
[2]; [11]
  Plant response rating, Pigweed: 0
[2]; [12]
  Plant response rating, Pigweed: 0
[2]; [13]
  Pigweed plant response rating: 0
[2]; [14]
  Plant response rating, Pigweed: 0
[3]; [11]
  Plant response rating, Wheat: 0
[3]; [12]
  Plant response rating, Wheat: 0
[4]; [11]
  Plant response rating, Ryegrass, Italian: 0
[4]; [12]
  Plant response rating, Ryegrass, Italian: 0
[4]; [13]
  Ryegrass, Italian plant response rating: 0
[4]; [14]
  Plant response rating, Ryegrass, Italian: 0
Corn (Zea mays); [11]
  Plant response rating, Corn: 0
Corn (Zea mays); [12]
  Plant response rating, Corn: 0
Kochia (Kochia scoparia); [11]
  Plant response rating, Kochia: 0
Kochia (Kochia scoparia); [12]
  Plant response rating, Kochia: 0
Kochia (Kochia scoparia); [13]
  Kochia plant response rating: 0
Kochia (Kochia scoparia); [14]
  Plant response rating, Kochia: 0
[5]; [11]
  Plant response rating, Barnyardgrass: 0
[5]; [12]
  Plant response rating, Barnyardgrass: 0
[5]; [13]
  Barnyardgrass plant response rating: 0
[5]; [14]
  Plant response rating, Barnyardgrass: 0
[6]; [11]
  Plant response rating, Ragweed: 0
[6]; [12]
  Plant response rating, Ragweed: 0
[6]; [13]
  Ragweed plant response rating: 0
[6]; [14]
  Plant response rating, Ragweed: 0
[7]; [11]
  Plant response rating, Blackgrass: 0
[7]; [12]
  Plant response rating, Blackgrass: 0
[8]; [11]
  Plant response rating, Galium: 0
[8]; [12]
  Plant response rating, Galium: 0

## COC(=O)c1cc(-c2ccccc2Oc2ncc(Cl)cn2)no1 [Compound 235]
[1]; [9]
  Plant response rating, Foxtail, Giant: 0
[1]; [10]
  Plant response rating, Foxtail, Giant: 0
[2]; [9]
  Plant response rating, Pigweed: 0
[2]; [10]
  Plant response rating, Pigweed: 0
[3]; [9]
  Plant response rating, Wheat: 0
[4]; [9]
  Plant response rating, Ryegrass, Italian: 0
[4]; [10]
  Plant response rating, Ryegrass, Italian: 0
Corn (Zea mays); [9]
  Plant response rating, Corn: 0
Kochia (Kochia scoparia); [9]
  Plant response rating, Kochia: 0
Kochia (Kochia scoparia); [10]
  Plant response rating, Kochia: 0
[5]; [9]
  Plant response rating, Barnyardgrass: 0
[5]; [10]
  Plant response rating, Barnyardgrass: 0
[6]; [9]
  Plant response rating, Ragweed: 0
[6]; [10]
  Plant response rating, Ragweed: 0
[7]; [9]
  Plant response rating, Blackgrass: 0
[8]; [9]
  Plant response rating, Galium: 0

## CCOC(=O)c1cc(-c2ccccc2Oc2ncc(Cl)cn2)no1 [Compound 148]
[1]; [9]
  Plant response rating, Foxtail, Giant: 10
[1]; [10]
  Plant response rating, Foxtail, Giant: 0
[2]; [9]
  Plant response rating, Pigweed: 0
[2]; [10]
  Plant response rating, Pigweed: 0
[3]; [9]
  Plant response rating, Wheat: 0
[4]; [9]
  Plant response rating, Ryegrass, Italian: 0
[4]; [10]
  Plant response rating, Ryegrass, Italian: 0
Corn (Zea mays); [9]
  Plant response rating, Corn: 0
Kochia (Kochia scoparia); [9]
  Plant response rating, Kochia: 0
Kochia (Kochia scoparia); [10]
  Plant response rating, Kochia: 0
[5]; [9]
  Plant response rating, Barnyardgrass: 10
[5]; [10]
  Plant response rating, Barnyardgrass: 0
[6]; [9]
  Plant response rating, Ragweed: 0
[7]; [9]
  Plant response rating, Blackgrass: 10
[8]; [9]
  Plant response rating, Galium: 0
